From patent US9309224B2 (Deciphera Pharmaceuticals, LLC, priority 2013, dated 2016)

Columns and labels:
[1] = target: T1, unphosphorylated c-KIT kinase (uKIT, Seq. ID no. 2) (Homo sapiens, UniProt P10721); assay: uKit kinase assay (pyruvate kinase/lactate dehydrogenase coupled); type: biochemical; conditions: ATP 2000 μM
T1 construct: uKit with N-terminal GST fusion used for
Description: In this assay, the oxidation of NADH (thus the decrease at A340 nm) was continuously monitored spectrophometrically. […] The inhibition reaction was started by mixing serial diluted test compound with the above reaction mixture. The absorption at 340 nm was monitored continuously for 4 hours at 30° C. on Synergy 2 plate reader (BioTech).

M-NFS-60 cells = assay: M-NFS-60 cell proliferation assay; type: cell-based; conditions: 67 h incubation, resazurin
Description: M-NFS-60 Cell Proliferation Assay A serial dilution of test compound was dispensed into a 384-well black clear bottom plate (Corning, Corning, N.Y.). Two thousand five hundred cells were added per well in 50 μL complete growth medium. […] IC50 values were calculated from a series of percent inhibition values determined at a range of inhibitor concentrations using software routines as implemented in the GraphPad Prism software package.

[2] = target: T2, unphosphorylated PDGFRβ kinase (uPDGFRβ, Seq. ID No. 3) (Homo sapiens, UniProt P09619); assay: Unphosphorylated PDGFRβ kinase assay (pyruvate kinase/lactate dehydrogenase coupled); type: biochemical; conditions: ATP 500 μM
T2 construct: purchased DeCode
From the text: Unphosyhorylated PDGFRβ (uPDGFRβkinase (Seq. ID No. 3) assay

[3] = target: T3, unphosphorylated c-FMS kinase (uFMS, Seq. ID no. 1) (Homo sapiens, UniProt P07333); assay: uFMS kinase assay (pyruvate kinase/lactate dehydrogenase coupled); type: biochemical; conditions: ATP 500 μM
T3 construct: purchased Millipore
T3 sequence (P07333 538-972): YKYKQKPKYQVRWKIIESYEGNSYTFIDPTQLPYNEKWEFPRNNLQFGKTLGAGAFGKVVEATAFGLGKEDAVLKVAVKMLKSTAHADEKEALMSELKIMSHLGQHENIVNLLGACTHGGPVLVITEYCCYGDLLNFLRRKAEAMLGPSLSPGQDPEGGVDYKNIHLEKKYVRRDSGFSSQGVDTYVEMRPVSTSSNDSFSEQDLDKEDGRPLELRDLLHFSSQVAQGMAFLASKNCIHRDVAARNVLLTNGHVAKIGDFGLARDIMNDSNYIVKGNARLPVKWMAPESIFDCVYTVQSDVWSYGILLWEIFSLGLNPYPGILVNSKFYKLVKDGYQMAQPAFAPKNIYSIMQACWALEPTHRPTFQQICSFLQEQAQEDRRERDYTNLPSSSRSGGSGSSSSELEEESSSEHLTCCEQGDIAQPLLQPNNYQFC
Description: In this assay, the oxidation of NADH (thus the decrease at A340 nm) was continuously monitored spectrophometrically. The reaction mixture (100 μL) contained FMS (purchased from Millipore) (10 nM), polyE4Y (1 mg/mL), MgCl2 (10 mM), pyruvate kinase (4 units), lactate dehydrogenase (0.7 units), phosphoenol pyruvate (1 mM), NADH (0.28 mM) and ATP (500 μM) in 90 mM Tris buffer containing 0.2% octyl-glucoside and 1% DMSO, pH 7.5. The inhibition reaction was started by mixing serial diluted test compound with the above reaction mixture. The absorption at 340 nm was monitored continuously for 4 hours at 30° C. on Synergy 2 plate reader. The reaction rate was calculated using the 3 to 4 h time frame. Percent inhibition was obtained by comparison of reaction rate with that of a control (i.e. in the absence of test compound). IC50 values were calculated from a series of percent inhibition values determined at a range of inhibitor concentrations using software routines as implemented in the GraphPad Prism software package.

[4] = target: T4, phospho-FMS in THP-1 cells (Homo sapiens, UniProt P07333); assay: Phospho-FMS ELISA assay in THP-1 cells; type: cell-based; conditions: 4 hours compound, M-CSF stimulated; read-out: pFMS inhibition in THP-1 cells
T4 construct: endogenous in cells; host or cells: THP-1 (ATCC TIB-202)
Description: In a separate 96 well black clear bottom plate, one hundred and fifty thousand THP-1 cells were added per well in 100 μL in assay medium. Fifty microliters of diluted compound was then added to the cells. […] Lysates were prepared and used to perform the phospho-FMS ELISA as described by the manufacturer (catalog #DYC3268, R & D Systems, Minneapolis, Minn.). GraphPad Prism was used to calculate IC50 values obtained from data generated from the ELISA assay.

c-FMS = assay: cFOS mRNA production in a c-FMS mouse spleen pharmacodynamic model; type: in vivo; conditions: out to 8 h post 30 mg/kg single oral dose, read-out: inhibition of cFOS mRNA levels
Description: Analysis of cFOS mRNA Production in a c-FMS Mouse Spleen Pharmacodynamic Model To examine the in vivo modulation of FMS activity by compounds of formula I, spleen samples from female DBA/1 mice were collected and analyzed for M-CSF stimulated production of cFOS mRNA. Briefly, six to seven week old female Taconic DBA/1BO J Bom Tac mice were treated with a single oral dose (by gavage) of either vehicle or compound. Plasma and spleen samples are collected from four mice at each timepoint 2, 4, 6, 8, 12, 18, and 24 hours after dosing. Fifteen minutes prior to euthanasia, all mice were injected IV with 1 μg (100 μL fixed volume) of M-CSF. M-CSF, Recombinant Mouse Macrophage Colony Stimulating Factor (36.4 kDa homodimer, ≧98% purity) was obtained from Gibco. All procedures carried out in this experiment were conducted in compliance with all the laws, regulations and guidelines of the National Institutes of Health (NIH). cFOS mRNA levels in spleen extracts were determined using a quantitative reverse transcriptase PCR kit from Life Technologies. Plasma levels of FMS inhibitors were determined by mass spectrometer analysis. The degree of FMS inhibition was correlative to the amount of decrease observed in cFOS mRNA levels in the spleen samples of treated animals compared to vehicle.

osteoclast precursors = assay: Osteoclast tartrate-resistant acid phosphatase assay; type: cell-based; conditions: Osteoclast; 7-14 days, RANKL and M-CSF

T2 sequence (P09619 557-1105): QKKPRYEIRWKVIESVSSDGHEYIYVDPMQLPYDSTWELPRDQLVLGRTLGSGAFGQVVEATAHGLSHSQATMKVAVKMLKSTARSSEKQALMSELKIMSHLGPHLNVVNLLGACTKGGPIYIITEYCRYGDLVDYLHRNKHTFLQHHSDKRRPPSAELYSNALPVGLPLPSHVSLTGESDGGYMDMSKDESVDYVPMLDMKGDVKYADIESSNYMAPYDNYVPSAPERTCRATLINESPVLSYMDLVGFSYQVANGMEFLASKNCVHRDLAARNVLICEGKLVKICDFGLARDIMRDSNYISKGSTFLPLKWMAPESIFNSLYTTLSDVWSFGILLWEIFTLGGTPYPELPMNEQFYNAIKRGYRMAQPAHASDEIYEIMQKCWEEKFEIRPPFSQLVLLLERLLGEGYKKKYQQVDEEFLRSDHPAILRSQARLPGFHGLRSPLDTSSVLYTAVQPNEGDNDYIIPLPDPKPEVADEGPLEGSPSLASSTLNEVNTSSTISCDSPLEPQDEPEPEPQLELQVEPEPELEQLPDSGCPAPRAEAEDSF
T4 sequence (P07333 20-972): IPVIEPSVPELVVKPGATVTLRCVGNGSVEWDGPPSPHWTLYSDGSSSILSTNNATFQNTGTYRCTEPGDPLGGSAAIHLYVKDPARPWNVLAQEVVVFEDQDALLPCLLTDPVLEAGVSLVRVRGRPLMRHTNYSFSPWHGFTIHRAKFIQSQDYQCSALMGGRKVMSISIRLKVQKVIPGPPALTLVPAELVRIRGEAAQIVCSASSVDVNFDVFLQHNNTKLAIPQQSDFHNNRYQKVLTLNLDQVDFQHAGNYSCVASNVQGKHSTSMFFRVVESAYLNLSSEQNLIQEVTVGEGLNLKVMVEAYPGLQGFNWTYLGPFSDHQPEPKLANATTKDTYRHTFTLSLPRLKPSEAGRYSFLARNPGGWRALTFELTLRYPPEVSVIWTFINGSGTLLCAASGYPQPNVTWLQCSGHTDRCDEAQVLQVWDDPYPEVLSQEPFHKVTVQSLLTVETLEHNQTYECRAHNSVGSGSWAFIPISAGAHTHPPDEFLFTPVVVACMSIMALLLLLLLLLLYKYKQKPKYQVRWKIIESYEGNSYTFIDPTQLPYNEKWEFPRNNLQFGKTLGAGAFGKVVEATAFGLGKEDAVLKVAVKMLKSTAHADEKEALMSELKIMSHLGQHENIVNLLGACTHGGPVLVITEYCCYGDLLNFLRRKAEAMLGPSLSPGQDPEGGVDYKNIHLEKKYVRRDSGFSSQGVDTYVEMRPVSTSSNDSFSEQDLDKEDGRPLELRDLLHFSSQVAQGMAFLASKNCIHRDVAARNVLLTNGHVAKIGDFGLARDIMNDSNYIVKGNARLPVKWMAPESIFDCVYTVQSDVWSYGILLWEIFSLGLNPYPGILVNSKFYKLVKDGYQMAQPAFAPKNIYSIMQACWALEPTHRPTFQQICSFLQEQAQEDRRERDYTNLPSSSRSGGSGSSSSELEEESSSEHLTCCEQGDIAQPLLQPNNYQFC
T1 sequence (P10721 with tags, fused parts or gaps): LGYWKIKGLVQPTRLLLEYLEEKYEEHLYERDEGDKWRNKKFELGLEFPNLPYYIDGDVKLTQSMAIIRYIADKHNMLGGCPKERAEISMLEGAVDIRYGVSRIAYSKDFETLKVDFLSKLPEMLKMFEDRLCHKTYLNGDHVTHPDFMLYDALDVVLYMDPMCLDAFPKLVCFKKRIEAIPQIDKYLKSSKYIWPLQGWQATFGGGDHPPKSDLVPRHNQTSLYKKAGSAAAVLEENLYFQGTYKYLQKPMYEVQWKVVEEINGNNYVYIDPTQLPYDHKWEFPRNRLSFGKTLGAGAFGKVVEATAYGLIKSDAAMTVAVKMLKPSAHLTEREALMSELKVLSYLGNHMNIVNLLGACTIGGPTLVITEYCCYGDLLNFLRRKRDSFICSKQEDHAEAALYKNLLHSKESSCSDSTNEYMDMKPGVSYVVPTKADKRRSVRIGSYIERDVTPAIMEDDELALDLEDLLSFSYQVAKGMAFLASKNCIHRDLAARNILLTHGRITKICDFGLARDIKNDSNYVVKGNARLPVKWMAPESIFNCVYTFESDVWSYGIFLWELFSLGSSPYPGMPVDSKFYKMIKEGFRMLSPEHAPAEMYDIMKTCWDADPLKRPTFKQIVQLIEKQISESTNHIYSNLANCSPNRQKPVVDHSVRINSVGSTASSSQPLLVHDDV

Compound | IC50 [1] | IC50 [2] | IC50 [3] | IC50 [4] | IC50 (osteoclast precursors) | IC50 (M-NFS-60 cells) | inhibition in vivo at 30 mg/kg (c-FMS)
CC(=O)Nc1cc(Oc2ccc(NC(=O)NC(=O)C(C)(C)C)nc2)ccn1 [Example 3, N-((5-((2-acetamidopyridin-4-yl)oxy)pyridin-2-yl)carbamoyl)pivalamide] | > 1000 nM | > 1000 nM | < 10 nM | < 10 nM | < 10 nM | 10 to 100 nM | ≥ 50%
CNC(=O)c1cc(Oc2ccc(NC(=O)NC(=O)C3(OC)CCCC3)nc2)ccn1 [Example 64, 4-((6-(3-(1-methoxycyclopentanecarbonyl)ureido)pyridin-3-yl)oxy)-N-methylpicolinamide] | 100 to 1000 nM | > 1000 nM | < 10 nM | < 10 nM | 10 to 100 nM | 10 to 100 nM | 
CNC(=O)c1cc(Oc2ccc(NC(=O)NC(=O)C3(C)CCOCC3)nc2)ccn1 [Example 70, N-methyl-4-((6-(3-(4-methyltetrahydro-2H-pyran-4-carbonyl)ureido)pyridin-3-yl)oxy)picolinamide] | > 1000 nM | > 1000 nM | 100 to 1000 nM | 10 to 100 nM | 10 to 100 nM | 100 to 1000 nM | 
Cc1nc(NC(=O)NC(=O)C(C)(C)C)ccc1Oc1ccnc(NC(=O)N2CCCC2)c1 [Example 71, N-(4-((2-methyl-6-(3-pivaloylureido)pyridin-3-yl)oxy)pyridin-2-yl)pyrrolidine-1-carboxamide] | > 1000 nM | 100 to 1000 nM | < 10 nM | < 10 nM | < 10 nM | < 10 nM | 
CN(C)C1CCN(C(=O)Nc2cc(Oc3ccc(NC(=O)NC(=O)C(C)(C)C)nc3)ccn2)CC1 [Example 76, 4-(dimethylamino)-N-(4-((6-(3-pivaloylureido)pyridin-3-yl)oxy)pyridin-2-yl)piperidine-1-carboxamide] | > 1000 nM | 100 to 1000 nM | < 10 nM | < 10 nM | < 10 nM | 10 to 100 nM | 
CN(C)C1CN(C(=O)Nc2cc(Oc3ccc(NC(=O)NC(=O)C(C)(C)C)nc3)ccn2)C1 [Example 77, 3-(dimethylamino)-N-(4-((6-(3-pivaloylureido)pyridin-3-yl)oxy)pyridin-2-yl)azetidine-1-carboxamide] | 100 to 1000 nM | 10 to 100 nM | < 10 nM | 10 to 100 nM | < 10 nM | < 10 nM | 
CNC(=O)Nc1cc(Oc2ccc(NC(=O)NC(=O)C(C)(C)C)nc2)ccn1 [Example 79, N-((5-((2-(3-methylureido)pyridin-4-yl)oxy)pyridin-2-yl)carbamoyl)pivalamide] | > 1000 nM | 100 to 1000 nM | < 10 nM | 10 to 100 nM | 10 to 100 nM | 100 to 1000 nM | 
CCN1CCN(C(=O)Nc2cc(Oc3ccc(NC(=O)NC(=O)C(C)(C)C)nc3)ccn2)CC1 [Example 80, 4-ethyl-N-(4-((6-(3-pivaloylureido)pyridin-3-yl)oxy)pyridin-2-yl)piperazine-1-carboxamide] | > 1000 nM | 100 to 1000 nM | < 10 nM | < 10 nM | < 10 nM | 10 to 100 nM | 
CN1CCN(C2CCN(C(=O)Nc3cc(Oc4ccc(NC(=O)NC(=O)C(C)(C)C)nc4)ccn3)CC2)CC1 [Example 81, 4-(4-methylpiperazin-1-yl)-N-(4-((6-(3-pivaloylureido)pyridin-3-yl)oxy)pyridin-2-yl)piperidine-1-carboxamide] | > 1000 nM | 100 to 1000 nM | < 10 nM | < 10 nM | < 10 nM | 10 to 100 nM | 
COCCNC(=O)Nc1cc(Oc2ccc(NC(=O)NC(=O)C(C)(C)C)nc2)ccn1 [Example 82, N-((5-((2-(3-(2-methoxyethyl)ureido)pyridin-4-yl)oxy)pyridin-2-yl)carbamoyl)pivalamide] | > 1000 nM | > 1000 nM | 10 to 100 nM | < 10 nM | 10 to 100 nM | 100 to 1000 nM | 

Continued, in another order:

IC50 [1] | IC50 [2] | IC50 [3] | IC50 [4] | IC50 (osteoclast precursors) | Compound | IC50 (M-NFS-60 cells) | inhibition in vivo at 30 mg/kg (c-FMS)
> 1000 nM | 10 to 100 nM | < 10 nM | < 10 nM | < 10 nM | CN(C)[C@H]1CCN(C(=O)Nc2cc(Oc3ccc(NC(=O)NC(=O)C(C)(C)C)nc3)ccn2)C1 [Example 47, (S)-3-(dimethylamino)-N-(4-((6-(3-pivaloylureido)pyridin-3-yl)oxy)pyridin-2-yl)pyrrolidine-1-carboxamide] | < 10 nM | 
100 to 1000 nM | 10 to 100 nM | < 10 nM | < 10 nM | < 10 nM | CC(C)(C)C(=O)NC(=O)Nc1ccc(Oc2ccnc(NC(=O)N3CCC3)c2)cn1 [Example 48, N-(4-((6-(3-pivaloylureido)pyridin-3-yl)oxy)pyridin-2-yl)azetidine-1-carboxamide] | < 10 nM | 
> 1000 nM | > 1000 nM | 10 to 100 nM | < 10 nM | 10 to 100 nM | CNC(=O)c1cc(Oc2ccc(NC(=O)NC(=O)C(C)(C)OC)nc2)ccn1 [Example 58, 4-((6-(3-(2-methoxy-2-methylpropanoyl)ureido)pyridin-3-yl)oxy)-N-methylpicolinamide] | 10 to 100 nM | 
> 1000 nM | > 1000 nM | < 10 nM | 10 to 100 nM | < 10 nM | Cc1nc(NC(=O)NC(=O)C(C)(C)C)ccc1Oc1ccnc(NC(=O)N2CCOCC2)c1 [Example 63, N-(4-((2-methyl-6-(3-pivaloylureido)pyridin-3-yl)oxy)pyridin-2-yl)morpholine-4-carboxamide] | 10 to 100 nM | 
100 to 1000 nM | 100 to 1000 nM | < 10 nM | 10 to 100 nM | < 10 nM | CN(C)C(=O)Nc1cc(Oc2ccc(NC(=O)NC(=O)C3(C)CCOCC3)nc2)ccn1 [Example 65, N-((5-((2-(3,3-dimethylureido)pyridin-4-yl)oxy)pyridin-2-yl)carbamoyl)-4-methyltetrahydro-2H-pyran-4-carboxamide] | 10 to 100 nM | 
> 1000 nM | 100 to 1000 nM | < 10 nM | < 10 nM | < 10 nM | CC(C)C(=O)NC(=O)Nc1ccc(Oc2ccnc(NC(=O)N3CCN(C)CC3)c2)cn1 [Example 66, N-(4-((6-(3-isobutyrylureido)pyridin-3-yl)oxy)pyridin-2-yl)-4-methylpiperazine-1-carboxamide] | < 10 nM | 
100 to 1000 nM | 10 to 100 nM | 10 to 100 nM | < 10 nM | < 10 nM | COC1(C(=O)NC(=O)Nc2ccc(Oc3ccnc(NC(C)=O)c3)cn2)CCCC1 [Example 67, N-((5-((2-acetamidopyridin-4-yl)oxy)pyridin-2-yl)carbamoyl)-1-methoxycyclopentanecarboxamide] | < 10 nM | 
> 1000 nM | 10 to 100 nM | < 10 nM | < 10 nM | < 10 nM | CN(C)[C@@H]1CCN(C(=O)Nc2cc(Oc3ccc(NC(=O)NC(=O)C(C)(C)C)nc3)ccn2)C1 [Example 68, (R)-3-(dimethylamino)-N-(4-((6-(3-pivaloylureido)pyridin-3-yl)oxy)pyridin-2-yl)pyrrolidine-1-carboxamide] | < 10 nM | 
> 1000 nM | > 1000 nM | < 10 nM | < 10 nM | < 10 nM | Cc1nc(NC(=O)NC(=O)C(C)(C)C)ccc1Oc1ccnc(NC(=O)N2CCN(C)CC2)c1 [Example 69, 4-methyl-N-(4-((2-methyl-6-(3-pivaloylureido)pyridin-3-yl)oxy)pyridin-2-yl)piperazine-1-carboxamide] | < 10 nM | 
